Measurements published in patent US20050288307A1, “Anti-viral compounds” (priority 2002, published 2005).
Read-outs that look alike come from different tables or passages of the source.

Tests used:
[1] = target: T1, CDK2/Cyclin E (Homo sapiens, UniProt P24941); test: CDK2/cyclin E kinase assay (GST-Rb phosphorylation); type: biochemical; conditions: read-out: Average IC50 CDK2 cyclin E1;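 note: enzyme source: His-tagged CDK2/cyclin E complex co-expressed recombinantly in Sf9 insect cells using baculovirus constructs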
T1 construct: His; made in house; host or cells: Sf9 insect cells (baculovirus)
Experimental: (§4) His-tagged CDK2/Cyclin E and CDK1/Cyclin B may be co-expressed and PKCα singularly expressed in Sf 9 insect cells infected with the appropriate baculovirus constructs. The cells are harvested two days after infection by low speed centrifugation and the proteins purified from the insect cell pellets by Metal-chelate chromatography. Briefly, the insect cell pellet is lysed in Buffer A (10 mM Tris-HCl, pH 8.0, 150 mM NaCl, 0.02% NP40 and 5 mM β-marcaptoethanol, 1 mM NaF. 1 mM Na3VO4 and Protease Inhibitors Coctail (Sigma) containing AEBSF, pepstatin A, E 64, bestatin, leupeptin) by sonication. The soluble fraction is cleared by centrifugation and loaded onto Ni-NTA-Agarose (Quiagen). Non bound proteins were washed off with 300 mM NaCl, 5-15 mM Imidazole in Buffer A and the bound proteins eluted with 250 mM Imidazole in Buffer A. The purified proteins are extensively dialyzed against Storage buffer (20 mM HEPES pH 7.4, 50 mM NaCl, 2 mM DTT, 1 mM EDTA, 1 mM EGTA, 0.02% NP40, 10% v/v Glycerol) aliquoted and stored at −70° C.

[2] = target: CDK2/cyclin A (Homo sapiens, UniProt P24941); test: CDK2/cyclin A kinase assay; type: biochemical; conditions: Table 3; read-out: Average IC50 CDK2 cyclin A2;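 note: Read-out is incorporated radioactivity retained on P81 filter plates and quantified by scintillation counting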
Experimental: Reactions were stopped on ice, followed by filtration through p81 filterplates (Whatman Polyfiltronics, Kent, UK). After washing 3 times with 75 mM orthophosphoric acid, plates were dried, scintillant added and incorporated radioactivity measured in a scintillation counter (TopCount, Packard Instruments, Pangboume, Berks, UK).

[3] = target: CDK4/Cyclin D1 (Homo sapiens, UniProt P11802); test: CDK4/cyclin D1 kinase assay (GST-Rb phosphorylation); type: biochemical; conditions: Table 2; read-out: Average IC50 CDK4 cyclin D1
[4] = target: CDK7/cyclin H (Homo sapiens, UniProt P50613); test: CDK7 assay (CTD peptide substrate); type: biochemical; conditions: read-out: Average IC50 CDK7 cyclin H
Procedure, shortened: (§1)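 Recombinant human CDK7/cyclin H or CDK9/cyclin T1 with biotinylated CTD peptide, 45 min at 30 °C, pH 7.2 MOPS buffer, 15 mM MgCl2, 100 μM ATP with trace [γ-32P]ATP. Avidin capture on P81 filters, phosphoric acid washes, 32P incorporation by scintillation counting.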

[5] = target: CDK9/cyclin T1 (Homo sapiens, UniProt P50750); test: CDK9 assay (CTD peptide substrate); type: biochemical; conditions: read-out: Average IC50 CDK9 cyclin T1
Procedure, shortened: as §1

[6] = target: Akt/PKB (Homo sapiens, UniProt P31749); test: Kinase specificity panel: Akt/PKB; type: biochemical; conditions: Table 2
[7] = tested on: CaMKII; type: biochemical; conditions: Table 2
[8] = target: ERK2 (Homo sapiens, UniProt P28482); test: Kinase specificity panel: ERK2; type: biochemical; conditions: Table 2
[9] = target: T2, PKC (Homo sapiens, UniProt P17252); test: PKC kinase assay (Histone 3 phosphorylation); type: biochemical; conditions: Table 2
T2 construct: 6xHis (C); made in house; host or cells: Sf9 insect cells (baculovirus)
Experimental: PKCα kinase activity may be measured by the incorporation of radio-labeled phosphate in Histone 3, as described. The reaction mixture (total volume 65 μl) consist of 50 mM Tris-HCl, 1 mM Calcium acetate, 3 mM DTT, 0.03 mg/ml Phosphatidylserine, 2.4 μg/ml PMA, 0.04% NP40, 12 mM Mg/Cl, purified PKCα-100 ng, Histone 3, 0.2 mg/ml, 100 μM ATP, 0.2 μCi [γ-^32P]-ATP. The reaction is carried over 15 min at 37° C. in microplate shaker and is stopped by adding 10 μl 75 mM orthophosphoric acid and placing the plate on ice. 50 μl of the reaction mixture is transferred onto P81 filterplate and after washing off the free radioactive phosphate (3 times with 200 μl 75 mM orthophosphoric acid per well) 50 μl of scintillation liquid (Microscint 40) were added to each well and the radioactivity is measured on Scintillation counter (Topcount, HP).

[10] = target: SAPK2a (Homo sapiens, UniProt Q16539); test: Kinase specificity panel: SAPK2a; type: biochemical; conditions: Table 2
[11] = target: CDK1/Cyclin B (Homo sapiens, UniProt P06493); test: CDK1/cyclin B kinase assay (GST-Rb phosphorylation);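 note: Enzyme: His-tagged CDK1/Cyclin B co-expressed in baculovirus-infected Sf9 insect cells, purified via metal-chelate chromatography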
Experimental: as §4

[12] = tested on: HIV-1RoJo/PBMC; test: Anti-HIV efficacy in fresh human PBMCs, strain RoJo; type: cell-based
Experimental: (§2) Fresh PBMCs, seronegative for HIV and HBV, were isolated from screened donors (Interstate Blood Bank, Inc. Memphis, Tenn.). Cells were pelleted/washed 2-3 times by low speed centrifugation and re-suspension in PBS to remove contaminating platelets. […] Banded PBMCs were gently aspirated from the resulting interface and subsequently washed with PBS by low speed centrifugation. […] The cells were allowed to incubate at 37° C. […] IL-2 is included in the culture medium to maintain the cell division initiated by the PHA mitogenic stimulation. PBMCs were maintained in this with bi-weekly medium changes until used in the assay protocol. Cells were kept in culture for a maximum of two weeks before being deemed too old for use in assays and discarded. Monocytes were depleted from the culture as the result of adherence to the tissue culture flask.
(§3) Tritiated thymidine triphosphate (^3H-TTP, 80 Ci/mmol, NEN) was received in 1:1 dH2O:Ethanol at 1 mCi/mL. Poly rA:oligo dT template:primer (Pharmacia) was prepared as a stock solution, followed by aliquoting and storage at −20° C. The RT reaction buffer was prepared fresh on a daily basis. The final reaction mixture was prepared by combining ^3H-TTP, dH2O, poly rA:oligo dT stock and reaction buffer. This reaction mixture was placed in a round bottom microtiter plate and supernatant containing virus was added and mixed. The plate was incubated at 37° C. for 60 minutes. Following incubation, the reaction volume was spotted onto DE81 filter-mats (Wallac), in a sodium phosphate buffer or 2×SSC (Life Technologies). Next they were washed in distilled water, in 70% ethanol, and then dried. Incorporated radioactivity (counts per minute, CPM) was quantified using standard liquid scintillation techniques.

[13] = tested on: HIV-1WeJo/PBMC; test: Anti-HIV efficacy in fresh human PBMCs, strain WeJo; type: cell-based
Experimental: as §2, §3

[14] = tested on: HIV-1; test: Anti-viral cell-based assays; conditions: result in words
[15] = Compound cytotoxicity in PBMC assay plates (MTS cell viability); conditions: human, TC50 (concentration decreasing cell viability by 50%)
[16] = Human immunodeficiency virus 1, PBMC, read-out: IC50 (concentration inhibiting virus replication by 50%)
[17] = Human immunodeficiency virus 1, PBMC, read-out: IC90 (concentration inhibiting virus replication by 90%)
[18] = Human immunodeficiency virus 1, read-out: IC50 (concentration inhibiting virus replication by 50%), HIV-1RoJo/PBMC
[19] = Human immunodeficiency virus 1, read-out: IC90 (concentration inhibiting virus replication by 90%), HIV-1RoJo/PBMC
[20] = Human immunodeficiency virus 1, read-out: IC50 (concentration inhibiting virus replication by 50%), HIV-1WeJo/PBMC
[21] = Human immunodeficiency virus 1, read-out: IC90 (concentration inhibiting virus replication by 90%), HIV-1WeJo/PBMC

Chain of CDK1/Cyclin B (P06493 whole entry, species assumed): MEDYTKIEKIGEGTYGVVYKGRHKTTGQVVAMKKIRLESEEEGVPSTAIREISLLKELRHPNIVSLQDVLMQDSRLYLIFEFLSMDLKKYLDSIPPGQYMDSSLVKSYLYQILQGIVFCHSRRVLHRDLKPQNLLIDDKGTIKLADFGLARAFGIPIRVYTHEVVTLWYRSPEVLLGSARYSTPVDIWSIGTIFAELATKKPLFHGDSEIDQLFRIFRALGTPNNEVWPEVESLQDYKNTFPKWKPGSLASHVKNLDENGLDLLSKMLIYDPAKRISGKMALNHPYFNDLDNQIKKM
Chain of CDK1/Cyclin B (P14635 whole entry partner, species assumed): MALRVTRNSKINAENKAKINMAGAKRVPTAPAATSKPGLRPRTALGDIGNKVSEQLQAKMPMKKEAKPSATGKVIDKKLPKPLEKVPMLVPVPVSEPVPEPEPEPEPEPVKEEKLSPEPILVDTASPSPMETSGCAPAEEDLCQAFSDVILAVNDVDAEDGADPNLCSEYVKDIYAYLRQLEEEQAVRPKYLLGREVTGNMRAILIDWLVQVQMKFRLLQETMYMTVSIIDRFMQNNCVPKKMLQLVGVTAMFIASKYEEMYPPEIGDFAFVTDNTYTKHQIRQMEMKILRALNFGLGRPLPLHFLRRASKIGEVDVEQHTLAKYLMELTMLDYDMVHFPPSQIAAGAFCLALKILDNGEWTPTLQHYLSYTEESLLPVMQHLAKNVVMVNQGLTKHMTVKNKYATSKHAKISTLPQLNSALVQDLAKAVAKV
Chain of CDK7/cyclin H (P50613 whole entry): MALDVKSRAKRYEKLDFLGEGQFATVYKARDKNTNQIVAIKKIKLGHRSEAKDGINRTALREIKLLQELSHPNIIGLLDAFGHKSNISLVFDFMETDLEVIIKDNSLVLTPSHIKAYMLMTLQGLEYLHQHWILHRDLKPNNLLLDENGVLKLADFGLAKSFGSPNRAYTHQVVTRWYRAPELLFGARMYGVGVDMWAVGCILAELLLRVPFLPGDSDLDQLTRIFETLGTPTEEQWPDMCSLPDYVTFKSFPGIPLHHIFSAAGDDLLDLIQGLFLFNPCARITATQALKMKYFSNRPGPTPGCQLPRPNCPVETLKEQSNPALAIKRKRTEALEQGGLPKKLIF
Chain of CDK7/cyclin H (P51946 whole entry partner): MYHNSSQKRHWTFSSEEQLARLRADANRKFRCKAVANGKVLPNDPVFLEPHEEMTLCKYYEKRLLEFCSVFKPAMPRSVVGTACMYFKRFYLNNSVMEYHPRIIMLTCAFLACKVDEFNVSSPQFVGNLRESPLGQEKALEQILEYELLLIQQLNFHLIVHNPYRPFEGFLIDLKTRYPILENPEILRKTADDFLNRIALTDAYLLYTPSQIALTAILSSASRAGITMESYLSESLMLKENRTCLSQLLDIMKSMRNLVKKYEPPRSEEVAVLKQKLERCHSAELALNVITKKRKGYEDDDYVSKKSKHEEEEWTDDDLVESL
Chain of Akt/PKB (P31749 whole entry): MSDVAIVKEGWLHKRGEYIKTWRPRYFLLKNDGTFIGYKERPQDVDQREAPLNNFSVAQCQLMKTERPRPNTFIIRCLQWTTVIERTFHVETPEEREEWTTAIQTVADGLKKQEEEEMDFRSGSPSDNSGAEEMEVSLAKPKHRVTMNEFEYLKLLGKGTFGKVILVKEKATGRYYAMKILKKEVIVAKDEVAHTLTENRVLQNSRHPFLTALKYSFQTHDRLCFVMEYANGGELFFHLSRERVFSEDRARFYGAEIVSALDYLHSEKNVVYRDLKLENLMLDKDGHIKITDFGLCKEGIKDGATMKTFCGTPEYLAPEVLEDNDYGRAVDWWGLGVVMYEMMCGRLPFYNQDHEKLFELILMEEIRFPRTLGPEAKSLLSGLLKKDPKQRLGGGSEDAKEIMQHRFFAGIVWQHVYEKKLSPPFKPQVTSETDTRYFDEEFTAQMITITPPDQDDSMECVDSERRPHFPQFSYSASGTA
Chain of CDK4/Cyclin D1 (P11802 whole entry, species assumed): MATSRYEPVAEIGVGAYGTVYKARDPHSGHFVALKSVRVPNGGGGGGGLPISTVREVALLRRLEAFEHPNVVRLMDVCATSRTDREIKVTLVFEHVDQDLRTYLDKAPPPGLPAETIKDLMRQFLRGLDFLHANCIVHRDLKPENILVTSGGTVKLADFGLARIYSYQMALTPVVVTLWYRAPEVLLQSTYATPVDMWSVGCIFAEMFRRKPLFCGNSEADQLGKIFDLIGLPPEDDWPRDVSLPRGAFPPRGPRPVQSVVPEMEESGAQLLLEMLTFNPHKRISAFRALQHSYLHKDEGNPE
Chain of CDK4/Cyclin D1 (P24385 whole entry partner, species assumed): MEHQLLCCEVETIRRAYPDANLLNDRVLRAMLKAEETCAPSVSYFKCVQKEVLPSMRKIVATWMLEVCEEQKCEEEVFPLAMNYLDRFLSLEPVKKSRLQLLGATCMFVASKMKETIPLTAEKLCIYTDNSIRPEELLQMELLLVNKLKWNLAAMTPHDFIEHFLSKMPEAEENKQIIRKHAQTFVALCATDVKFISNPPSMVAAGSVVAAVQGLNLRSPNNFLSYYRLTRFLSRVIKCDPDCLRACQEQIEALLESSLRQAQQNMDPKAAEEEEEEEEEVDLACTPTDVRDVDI
Chain of SAPK2a (Q16539 whole entry, species assumed): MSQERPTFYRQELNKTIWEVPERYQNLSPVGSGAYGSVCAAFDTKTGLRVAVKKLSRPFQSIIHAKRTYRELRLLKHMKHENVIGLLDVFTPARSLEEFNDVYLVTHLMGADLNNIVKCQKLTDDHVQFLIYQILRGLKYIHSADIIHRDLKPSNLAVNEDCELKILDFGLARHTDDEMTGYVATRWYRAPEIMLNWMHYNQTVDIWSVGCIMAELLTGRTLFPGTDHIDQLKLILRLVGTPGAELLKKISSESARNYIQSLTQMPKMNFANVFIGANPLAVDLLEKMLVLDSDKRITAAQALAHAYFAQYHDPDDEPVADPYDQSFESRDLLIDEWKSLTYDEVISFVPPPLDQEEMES
Chain of CDK9/cyclin T1 (P50750 whole entry): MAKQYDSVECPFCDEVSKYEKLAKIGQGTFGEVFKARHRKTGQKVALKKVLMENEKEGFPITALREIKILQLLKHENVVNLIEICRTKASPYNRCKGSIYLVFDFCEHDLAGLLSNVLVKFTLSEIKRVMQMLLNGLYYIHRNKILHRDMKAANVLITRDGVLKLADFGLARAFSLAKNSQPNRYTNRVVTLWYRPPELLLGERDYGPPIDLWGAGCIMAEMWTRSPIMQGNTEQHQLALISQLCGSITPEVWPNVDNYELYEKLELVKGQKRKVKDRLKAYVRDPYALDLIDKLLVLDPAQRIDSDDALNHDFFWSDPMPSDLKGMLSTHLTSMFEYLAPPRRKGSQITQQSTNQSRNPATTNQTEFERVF
Chain of CDK9/cyclin T1 (O60563 whole entry partner): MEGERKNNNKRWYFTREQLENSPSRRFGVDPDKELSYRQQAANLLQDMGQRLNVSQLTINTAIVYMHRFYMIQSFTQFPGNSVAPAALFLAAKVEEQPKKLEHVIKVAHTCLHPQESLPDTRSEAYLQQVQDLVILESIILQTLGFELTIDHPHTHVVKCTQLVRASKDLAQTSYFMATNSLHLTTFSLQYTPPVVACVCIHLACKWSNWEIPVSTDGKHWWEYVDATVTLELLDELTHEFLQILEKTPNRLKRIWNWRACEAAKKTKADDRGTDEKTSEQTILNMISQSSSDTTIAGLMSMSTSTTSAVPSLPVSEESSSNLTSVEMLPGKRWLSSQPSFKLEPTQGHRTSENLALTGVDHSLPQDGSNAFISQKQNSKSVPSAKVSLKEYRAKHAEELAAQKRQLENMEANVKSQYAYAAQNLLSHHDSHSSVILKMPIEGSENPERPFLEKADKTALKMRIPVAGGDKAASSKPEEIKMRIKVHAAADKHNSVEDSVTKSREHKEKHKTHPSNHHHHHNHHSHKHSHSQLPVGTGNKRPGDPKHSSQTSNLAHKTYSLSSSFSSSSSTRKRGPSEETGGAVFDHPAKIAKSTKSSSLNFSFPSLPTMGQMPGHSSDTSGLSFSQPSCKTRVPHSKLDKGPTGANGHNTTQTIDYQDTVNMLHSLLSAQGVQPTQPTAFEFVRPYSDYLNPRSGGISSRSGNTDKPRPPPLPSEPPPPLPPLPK

IC50 ([1]; Table 2) [nM] | IC50 [2] [nM] | IC50 [3] [nM] | IC50 ([4]; Table 2) [nM] | IC50 ([5]; Table 2) [nM] | IC50 [6] [nM] | IC50 [8] [nM] | IC50 [9] [nM] | IC50 [10] [nM] | IC50 [11] [nM] | SMILES | IC50 [7] [nM] | anti-viral effectiveness as demonstrated by cell-based assays [14] | CC50 at 7 days ([15]; HIV-1RoJo/PBMC) [nM] | CC50 at 7 days ([15]; HIV-1WeJo/PBMC) [nM] | IC50 [12, 18] [nM] | IC90 [12, 19] [nM] | IC50 [13, 20] [nM] | IC90 [13, 21] [nM] | also measured
280 | 1700 | 1400 | 360 | 55 | 70000 | > 100000 | > 100000 | > 100000 | 1700 | Cc1nc(N)sc1-c1ccnc(Nc2ccc(I)c([N+](=O)[O-])c2)n1 [Compound 117, [4-(2-Amino-4-methyl-thiazol-5-yl)-pyrimidin-2-yl]-(4-iodo-3-nitro-phenyl)-amine] | > 100000 |  |  |  |  |  |  |  | 
 |  |  |  |  |  |  |  |  |  | Cc1nc(N)sc1-c1ccnc(Nc2cccc([N+](=O)[O-])c2)n1 [Compound 105, [4-(2-Amino-4-methyl-thiazol-5-yl)-pyrimidin-2-yl]-(3-nitro-phenyl)-amine] | > 100000 | particularly effective anti-viral agents | 1600 | 200 |  |  |  |  | IC50 [12, 16]: 67 nM; IC90 [12, 17]: 350 nM; IC50 [13, 16]: 5 nM; IC90 [13, 17]: 14 nM
 |  |  |  |  |  |  |  |  |  | Cc1nc(C)c(-c2ccnc(Nc3ccc(N(C)C)c(Cl)c3)n2)s1 [Compound 128, 2-Chloro-N^4-[4-(2,4-dimethyl-thiazol-5-yl)-pyrimidin-2-yl]-N^1,N^1-dimethyl-benzene-1,4-diamine] |  | particularly effective anti-viral agents | 4300 | > 100000 | 740 | 2700 | 860 | 2000 | IC50 ([4]; Table 3): 6300 nM; IC50 ([5]; Table 3): 450 nM
110 | 180 | 460 | 990 | 130 | 53000 | 15000 | 33000 | 29000 | 580 | Cc1nc(N)sc1-c1ccnc(Nc2cccc(O)c2)n1 [Compound 116, 3-[4-(2-Amino-4-methyl-thiazol-5-yl)-pyrimidin-2-ylamino]-phenol] | 7700 |  |  |  |  |  |  |  | 
 |  |  |  |  |  |  |  |  |  | Cc1nc(C)c(-c2ccnc(Nc3ccc(I)cc3)n2)s1 [Compound 21, [4-(2,4-Dimethyl-thiazol-5-yl)-pyrimidin-2-yl]-(4-iodo-phenyl)-amine] |  | particularly effective anti-viral agents | 31000 | 64000 | 62 | 100 | 29 | 48 | TI (therapeutic index: TC50/IC50) ([12]; HIV-1RoJo/PBMC): 495; TI (therapeutic index: TC50/IC50) ([13]; HIV-1WeJo/PBMC): 2190; melting point: 171 to 173 °C

SMILES | IC50 ([1]; Table 2) [nM] | IC50 [2] [nM] | IC50 [3] [nM] | IC50 ([4]; Table 2) [nM] | IC50 ([5]; Table 2) [nM] | IC50 [6] [nM] | IC50 [8] [nM] | IC50 [9] [nM] | IC50 [10] [nM] | IC50 [11] [nM] | IC50 [7] [nM] | anti-viral effectiveness as demonstrated by cell-based assays [14] | CC50 at 7 days ([15]; HIV-1RoJo/PBMC) [nM] | CC50 at 7 days ([15]; HIV-1WeJo/PBMC) [nM] | IC50 [12, 18] [nM] | IC90 [12, 19] [nM] | IC50 [13, 20] [nM] | IC90 [13, 21] [nM] | also measured
Cc1nc(C)c(-c2ccnc(Nc3cccc(C#N)c3)n2)s1 [Compound 36, 3-[4-(2,4-Dimethyl-thiazol-5-yl)-pyrimidin-2-ylamino]-benzonitrile] | 390 | 160 | 2900 | 1700 | 1000 | > 50000 | > 50000 | > 50000 | > 50000 | 2500 | > 50000 |  |  |  |  |  |  |  | IC50 ([1]; Table 3): 390 nM
